# Test results: PubChem BioAssay (NCI)
#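 Method: 48-hour compound exposure of cells in 96-well plates, five concentrations, linear interpolation of endpoints. GI50 = concentration required for 50% inhibition of growth. TGI denotes the concentration required for complete inhibition of growth.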
# Legend:
# Assay in all cases: NCI anticancer screen, dose series, 48 h
# [1] = test system: SK-OV-3 ovarian
# [2] = test system: OVCAR-5 ovarian
# [3] = test system: UACC-62 melanoma
# [4] = test system: T-47D breast
# [5] = test system: TK-10 renal
# [6] = test system: NCI-H226 lung
# [7] = test system: HOP-62 NSCLC
# [8] = test system: OVCAR-4 ovarian
# [9] = test system: MDA-MB-435
# [10] = test system: M14 melanoma
# [11] = test system: KM12 colon
# [12] = test system: HT29 colon
# [13] = test system: ACHN renal
# [14] = test system: U251 CNS
# [15] = test system: SK-MEL-2 melanoma
# [16] = test system: HS 578T breast
# [17] = test system: SN12C renal
# [18] = test system: UO-31 renal
# [19] = test system: NCI-H460 lung
# [20] = test system: COLO 205 colon
# [21] = test system: UACC-257 melanoma
# [22] = test system: CAKI-1 renal
# [23] = test system: 786-0 renal
# [24] = test system: NCI-H522 lung
# [25] = test system: SNB-19 CNS
# [26] = test system: IGROV1 ovarian
# [27] = test system: EKVX NSCLC
# [28] = test system: SK-MEL-28 melanoma
# [29] = test system: BT-549 breast
# [30] = test system: DU-145 prostate
# [31] = test system: CCRF-CEM leukemia
# [32] = test system: K-562 leukemia
# [33] = test system: MCF7 breast
# [34] = test system: LOX IMVI melanoma
# [35] = test system: OVCAR-8 ovarian
# [36] = test system: RPMI-8226 leukemia
# [37] = test system: HCT-15 colon
# [38] = test system: MOLT-4 leukemia
# [39] = test system: HL-60(TB) leukemia
# [40] = test system: SW-620 colon
# [41] = test system: SNB-75 CNS
# [42] = test system: NCI/ADR-RES ovarian
# [43] = test system: SF-539 CNS
# [44] = test system: A498 renal
# [45] = test system: OVCAR-3 ovarian
# [46] = test system: SF-295 CNS
# [47] = test system: HCC-2998 colon
# [48] = test system: SK-MEL-5 melanoma
# [49] = test system: RXF 393 renal
# [50] = test system: MDA-MB-231 breast
# [51] = test system: PC-3 prostate
# [52] = test system: HCT-116 colon
# [53] = test system: A549 NSCLC
# [54] = test system: SF-268 CNS
compound,measurement,setting,value
N#Cc1cc2c(cc1Cl)SC(=Nc1ccccc1)N(S(=O)(=O)c1ccc(Cl)cc1)S2(=O)=O,GI50,[1],20 µM
same,TGI,[1],40.8 µM
same,GI50,[2],16.8 µM
same,TGI,[2],32.9 µM
same,GI50,[3],14.7 µM
same,TGI,[3],29 µM
same,GI50,[4],19.9 µM
same,TGI,[4],64.1 µM
same,GI50,[5],656 nM
same,TGI,[5],3.64 µM
same,GI50,[6],17.7 µM
same,TGI,[6],42.9 µM
same,GI50,[7],13.5 µM
same,TGI,[7],29.9 µM
same,GI50,[8],19 µM
same,TGI,[8],42.2 µM
same,GI50,[9],13 µM
same,TGI,[9],27.8 µM
same,GI50,[10],10 µM
same,TGI,[10],24.8 µM
same,GI50,[11],14 µM
same,TGI,[11],28.1 µM
same,GI50,[12],31 µM
same,TGI,[12],> 100 µM
same,GI50,[13],17.7 µM
same,TGI,[13],33.2 µM
same,GI50,[14],17.7 µM
same,TGI,[14],36.6 µM
same,GI50,[15],3.61 µM
same,TGI,[15],16.8 µM
same,GI50,[16],21.6 µM
same,TGI,[16],57.8 µM
same,GI50,[17],17.2 µM
same,TGI,[17],37.1 µM
same,GI50,[18],9.84 µM
same,TGI,[18],26.9 µM
same,GI50,[19],20.8 µM
same,TGI,[19],53.5 µM
same,GI50,[20],32 µM
same,TGI,[20],> 100 µM
same,GI50,[21],18.6 µM
same,TGI,[21],40.4 µM
same,GI50,[22],12.3 µM
same,TGI,[22],27.2 µM
same,GI50,[23],14.2 µM
same,TGI,[23],28.6 µM
same,GI50,[24],3.29 µM
same,TGI,[24],17.3 µM
same,GI50,[25],35.5 µM
same,TGI,[25],> 100 µM
same,GI50,[26],5.56 µM
same,TGI,[26],21.2 µM
same,GI50,[27],16.9 µM
same,TGI,[27],34.4 µM
same,GI50,[28],17.1 µM
same,TGI,[28],37.7 µM
same,GI50,[29],13.4 µM
same,TGI,[29],30.4 µM
same,GI50,[30],16.6 µM
same,TGI,[30],35.7 µM
same,GI50,[31],20.6 µM
same,TGI,[31],39.1 µM
same,GI50,[32],50.5 µM
same,TGI,[32],> 100 µM
same,GI50,[33],14.8 µM
same,TGI,[33],37.6 µM
same,GI50,[34],10.8 µM
same,TGI,[34],28.8 µM
same,GI50,[35],18 µM
same,TGI,[35],51 µM
same,GI50,[36],10.6 µM
same,TGI,[36],51.7 µM
same,GI50,[37],15.2 µM
same,TGI,[37],33.6 µM
same,GI50,[38],28.7 µM
same,TGI,[38],> 100 µM
same,GI50,[39],> 100 µM
same,TGI,[39],> 100 µM
same,GI50,[40],17.4 µM
same,TGI,[40],39.5 µM
same,GI50,[41],18.9 µM
same,TGI,[41],42.2 µM
same,GI50,[42],18 µM
same,TGI,[42],44.6 µM
same,GI50,[43],19.8 µM
same,TGI,[43],39.8 µM
same,GI50,[44],16.4 µM
same,TGI,[44],32.8 µM
same,GI50,[45],4.95 µM
same,TGI,[45],17.9 µM
same,GI50,[46],22.5 µM
same,TGI,[46],72.7 µM
same,GI50,[47],17.8 µM
same,TGI,[47],33 µM
same,GI50,[48],13.4 µM
same,TGI,[48],28.7 µM
same,GI50,[49],5.68 µM
same,TGI,[49],30.1 µM
same,GI50,[50],14.5 µM
same,TGI,[50],34.5 µM
same,GI50,[51],17.5 µM
same,TGI,[51],38.2 µM
same,GI50,[52],3.78 µM
same,TGI,[52],18 µM
same,GI50,[53],20.3 µM
same,TGI,[53],54.5 µM
same,GI50,[54],16.9 µM
same,TGI,[54],41.6 µM
